# Data taken from US10774051B2, “6-membered heterocyclic derivatives and pharmaceutical composition comprising the same” (Shionogi & Co., Ltd., priority 2015, dated 2020).
# Where two headings read alike, the source gives them in different places.
# What was measured:
# human P2X7 receptor = human P2X7 receptor (Homo sapiens, UniProt Q99572, R270H/Y155H); experiment: Evaluation of human P2X7 receptor inhibitory activity (Yo-Pro uptake, BzATP stimulation, FLIPR TETRA); type: cell-based; details: 1321N1 cells stably expressing human P2X7 receptor; BzATP stimulation, Yo-Pro uptake; read-out: IC50 (antagonistic activity for the human P2X7 receptor)
# Method in brief: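 1321N1 cells stably expressing human P2X7 (T606C/G952A SNP variant), in HBSS buffer pH 7.4-7.5 with Yo-Pro, stimulated with BzATP; compound added 8 min after agonist. Fluorescence followed for 20 min on FLIPR; max-minus-min change gave % inhibition, IC50 by logistic fit.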
# [1] = test system: partial sciatic nerve ligation model in rats; experiment: Analgesic effect in a Seltzer model, evaluation (1): mechanical allodynia, von Frey filaments; type: in vivo; details: rat, read-out: analgesic effect, % reversal of mechanical allodynia
# From the text: Preparation of Partial Sciatic Nerve Ligation Model in Rats
# Rats are anaesthetized using isoflurane/O2 inhalation anaesthesia. After induction of anesthesia, the left thigh is shaved. An incision was made in the skin just below the hip bone. The muscle was bluntly dissected to expose the sciatic nerve. About one half (½) of the sciatic nerve thickness is tightly ligated with a nylon thread and the wound is closed. The right thigh was used as a sham-operated control. The right thigh underwent an identical procedure with the left hind limb, however, the sciatic nerve was not manipulated or ligated.
# Two weeks after nerve ligation, the effect on mechanical allodynia was assessed using a series of von Frey filaments. For habituation, the rats were placed into a plastic cage on a wire mesh bottom. Von Frey filaments (0.4 to 26 g) were applied to the plantar surface of the rat hind paws from the wire mesh side, and the value of the filament pressure at which the paw was withdrawn was used as a pain threshold. The measurement of mechanical sensitivity of the right and left hind paws was performed to obtain predose mechanical sensitivity. The rats showing the threshold change from 0.6 to 2 g (in nerve ligated side) and 8 to 15 g (in sham operated side) were used in the experiments. On the day before the experiment, the rats were evaluated with a series of von Frey filaments to familiarize them with the test procedure. The adopted animal was administrated with the compounds of the present invention. The compounds of the present invention were homogenized with mortar and pestle and suspended or diluted in 0.5% Methyl Cellulose to prepare 0.03-100 mg/2 mL/kg suspension and orally administered to rat using a syringe attached with a sonde. Post-dose mechanical sensitivities of the right and left hind paws were measured at approximately 1 to 7 hours after drug administration. Percent reversal of mechanical allodynia for each rat was calculated using the following formula. The analgesic effects of the compounds were compared.
# [2] = 3 hours after oral administration of 3 mg/kg
# [3] = 5 hours after oral administration of 3 mg/kg
SMILES,IC50 (human P2X7 receptor) [nM],"inhibition in vivo at 3 mg/kg [1, 2] [%]","inhibition in vivo at 3 mg/kg [1, 3] [%]",inhibition in vivo at 3 mg/kg ([1]; 7 hours after oral administration of 3 mg/kg) [%]
COc1ccc(C)c(Nc2nc(=O)c(OC)cn2Cc2ccc(F)c(Cl)c2)c1 [Compound I-0354],3,51,–,–
COc1ccc(C)c(Nc2nc(=O)c(F)cn2Cc2cc(F)c(F)c(F)c2)c1 [Compound I-1066],3,–,63,–
COc1ccc(F)c(Nc2nc(=O)c(F)cn2Cc2cc(F)c(F)c(F)c2)c1 [Compound I-1296],11,59,–,–
COc1cc(C)c(Nc2nc(=O)c(OC)cn2Cc2cc(F)cc(F)c2)cc1C [Compound I-0372],5,64,–,–
COc1cc(C)c(Nc2nc(=O)c(C)nn2Cc2cc(F)cc(F)c2)cc1OC [Compound I-1261],16,–,54,–
Cc1ccc(F)cc1Nc1nc(=O)c(F)cn1Cc1cc(F)c(F)c(F)c1 [Compound I-1295],13,51,–,–
COc1ccc(Nc2nc(=O)c(F)cn2Cc2cc(F)cc(F)c2)c(C)c1 [Compound I-0842],5,–,69,–
COc1cc(C)c(Nc2nc(=O)cnn2Cc2cc(F)c(F)c(F)c2)cc1OC [Compound I-1281],4,–,48,–
COc1cn(Cc2ccc(F)c(Cl)c2)c(Nc2cc(C)c(Cl)cc2C)nc1=O [Compound I-0006],6,49,–,–
COc1cn(Cc2ccc(F)c(Cl)c2)c(Nc2cc3sc(C)nc3cc2C)nc1=O [Compound I-0005],5,45,–,–
COc1ccc(Nc2nc(=O)c(F)cn2Cc2cc(F)c(F)c(F)c2)c(C)c1 [Compound I-1040],6,49,–,–
COc1cc(Nc2nc(=O)c(F)cn2Cc2cc(F)cc(F)c2)c(C)cc1F [Compound I-1050],10,–,46,–
CCOc1ccc(Nc2nc(=O)c(OC)cn2Cc2cc(F)c(F)c(F)c2)c(C)c1 [Compound I-0702],11,–,58,–
Cc1cc2c(cc1Nc1nc(=O)c(F)cn1Cc1cc(F)c(F)c(F)c1)COC2 [Compound I-1041],9,–,48,–
O=C1CCCc2c(Nc3nc(=O)c(F)cn3Cc3cc(F)c(F)c(F)c3)cccc21 [Compound I-1108],4,–,42,–
COc1ccc(Nc2nc(=O)c(F)cn2Cc2cc(F)cc(F)c2)c(C)c1F [Compound I-1297],16,–,49,–
COc1cn(Cc2cc(F)c(F)c(F)c2)c(Nc2cc3c(cc2C)COC3)nc1=O [Compound I-0910],14,–,45,–
COc1cn(Cc2cc(F)c(F)c(F)c2)c(Nc2ccc(OC(F)F)cc2C)nc1=O [Compound I-0707],14,–,–,53
COc1cn(Cc2ccc(F)c(Cl)c2)c(Nc2ccc(OC(F)F)cc2C)nc1=O [Compound I-0365],18,–,55,–
Cc1cc(Nc2nc(=O)c(F)cn2Cc2cc(F)c(F)c(F)c2)c(C)nc1OC(F)F [Compound I-1232],6,–,55,–
